Holding throughout (type): biochemical
Assay [1] concerns the target T1, Human PKK (Homo sapiens (Human), UniProt P03952). In words: Inhibition of PKK using an endpoint assay (human PKK). The conditions noted are these: 1 h at rt, 0.10 μM H-Pro-Phe-Arg-AMC. The method, then: (§1) The ability of compounds of formula (I) to inhibit plasma kallikrein (PKK), Factor XIIa (FXIIa), Factor XIa (FXIa), Factor Xa (FXa), Factor IIa (alpha-thrombin; FIIa), plasmin, trypsin, tissue kallikrein 1 (TK1), Factor Vila (FVIIa), or FVIIa complexed with Tissue Factor, phospholipids and CaCl2) (FVIIa/TF/PL/CaCl2) was determined using the following biochemical assays in assay buffer (100 mM Tris, 150 mM NaCL, adjusted to a pH of 7.8 with HCl, and containing 0.1% (w/v) BSA and 0.05% (v/v) Tween20) in the presence of 1% (v/v) DMSO:
Subsequently, PPACK II (Calbiochem) was added as a stop solution to achieve a final concentration of 1 μM and fluorescence was measured using an Envision Reader (PerkinElmer) with the wavelength excitation setting of 355 nm and the wavelength emission setting of 460 nm. The number of the compound corresponds to the number of the Example in the experimental section.

For assay [2], the target named is PKK in kaolin activated human platelet poor plasma (Homo sapiens (Human), UniProt P03952). In words: Inhibition of PKK in kaolin activated human PPP. The conditions noted are these: global fit over 25, 75, 250, 750 μg/mL kaolin, 37° C. The procedure: Platelet poor plasma (PPP) obtained from human wholeblood, anticoagulated with Na-Citrate, was incubated with various concentrations of the test compound together with either 25, 75, 250, or 750 μg/mL kaolin in assay buffer for 20 min at 37° C. such that for each kaolin dose used a concentration response was obtained for the test compound.
PKK in kaolin activated human platelet poor plasma, sequence (P03952 391-638): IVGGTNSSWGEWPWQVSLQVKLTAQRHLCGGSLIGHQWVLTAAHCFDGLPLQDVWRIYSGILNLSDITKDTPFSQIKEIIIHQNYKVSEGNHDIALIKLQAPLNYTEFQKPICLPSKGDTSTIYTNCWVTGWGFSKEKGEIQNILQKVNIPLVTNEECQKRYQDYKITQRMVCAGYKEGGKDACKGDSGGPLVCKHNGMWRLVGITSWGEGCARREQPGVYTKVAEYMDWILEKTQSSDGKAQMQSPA
PKK in kaolin activated human platelet poor plasma, sequence (P03952 20-390 partner): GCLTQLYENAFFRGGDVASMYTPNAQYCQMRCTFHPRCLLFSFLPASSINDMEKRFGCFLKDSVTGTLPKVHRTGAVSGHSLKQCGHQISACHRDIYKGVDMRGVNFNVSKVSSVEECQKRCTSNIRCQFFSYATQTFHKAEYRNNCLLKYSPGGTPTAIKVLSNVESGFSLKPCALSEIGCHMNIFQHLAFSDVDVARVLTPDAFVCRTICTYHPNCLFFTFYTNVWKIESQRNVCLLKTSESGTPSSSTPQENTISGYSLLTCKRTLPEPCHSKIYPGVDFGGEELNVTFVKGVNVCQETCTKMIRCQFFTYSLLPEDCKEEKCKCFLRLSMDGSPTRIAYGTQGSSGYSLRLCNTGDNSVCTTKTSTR
The number of the compound corresponds to the number of the Example in the experimental section.

Assay [3] has as its target T1, Human PKK. In words: Inhibition of PKK (Ki), kinetic assay. The conditions noted are these: 24° C., 0.25 mM H-Pro-Phe-Arg-AMC, IC50 corrected for KM. The procedure:
as §1
Human PKK (1.78 nM or 0.025 U/mL; Enzyme Research Laboratories) was incubated at 24° C. with 0.25 mM fluorogenic substrate H-Pro-Phe-Arg-AMC (11295 from Bachem) and various concentrations of the test compound in assay buffer. Measurements were performed in a kinetic interval every 2nd minute for 16 min using a Spectramax M5 (Molecular Devices) with the following settings of the wavelength excitation of 350 nm and wavelength emission of 450 nm. The number of the compound corresponds to the number of the Example in the experimental section.
(§2) The pIC50 values were then fitted using a four-parametric fitting procedure using GraphPad Prism (version 6; GraphPad Software, Inc.). Respective Ki values were obtained by correction of the IC50 values for the respective KM value of the used substrate (see Table A for the obtained KM values of the used substrates) using the following formula: […]
Where the IC50 is in mol/L and the KM value in mmol/L.

In a further assay the target is Human plasmin (Homo sapiens (Human), UniProt P00747). Briefly: Inhibition of plasmin (Ki). The conditions noted are these: substrate KM, enzyme Plasmin. The method, then:
as §1
Measurements were performed in a kinetic interval every 2nd minute for 16 min using a Spectramax M5 (Molecular Devices) measuring the optical absorbance at 405 nm.
as §2

Square brackets hold non-standard residues; d marks the D form. Peptide text beside a SMILES is read from it. * marks the point of attachment. pNA = O=[N+]([O-])c1ccc(N*)cc1

T1 sequence (P03952 391-638): as the sequence (P03952 391-638) above
T1 sequence (P03952 20-390 partner): as the sequence (P03952 20-390 partner) above
Human plasmin, sequence (P00747 581-810): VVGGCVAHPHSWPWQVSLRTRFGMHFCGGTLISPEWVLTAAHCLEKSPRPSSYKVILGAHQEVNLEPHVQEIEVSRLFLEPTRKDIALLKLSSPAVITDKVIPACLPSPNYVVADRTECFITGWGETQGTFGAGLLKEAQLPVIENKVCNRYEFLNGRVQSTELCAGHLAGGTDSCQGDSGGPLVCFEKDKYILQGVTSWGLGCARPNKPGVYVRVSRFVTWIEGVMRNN
Human plasmin, sequence (P00747 97-580 partner): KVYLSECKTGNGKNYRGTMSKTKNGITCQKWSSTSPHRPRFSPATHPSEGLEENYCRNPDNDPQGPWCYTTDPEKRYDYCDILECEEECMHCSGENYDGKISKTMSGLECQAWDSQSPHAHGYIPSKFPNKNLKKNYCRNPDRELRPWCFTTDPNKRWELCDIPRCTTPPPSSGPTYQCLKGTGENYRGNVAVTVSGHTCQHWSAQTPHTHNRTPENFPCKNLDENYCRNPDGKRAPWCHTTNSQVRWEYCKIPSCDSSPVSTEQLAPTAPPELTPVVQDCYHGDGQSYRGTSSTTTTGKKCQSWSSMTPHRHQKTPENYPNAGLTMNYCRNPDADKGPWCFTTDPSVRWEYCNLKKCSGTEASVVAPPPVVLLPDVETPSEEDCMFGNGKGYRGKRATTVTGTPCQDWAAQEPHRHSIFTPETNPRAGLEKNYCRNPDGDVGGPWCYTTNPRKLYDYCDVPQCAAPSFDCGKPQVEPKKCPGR

The term IC50 denotes the concentration that gives 50% inhibition. A low value points to greater potency in that assay. The IC90 is the point of the concentration-response curve where the effect stands at 90%. Usually Ki stands for the dissociation constant of the complex between target and ligand, obtained from inhibition or displacement. A lower Ki goes with tighter binding. With `Cc1nc(N2CC3CC3C2)ccc1Cn1cc(C(=O)NCc2cc(Cl)ccc2-n2cnnn2)cn1` (stereo not shown) [Example 1, 1-[(6-{3-azabicyclo[3.1.0]hexan-3-yl}-2-methylpyridin-3-yl)methyl]-N-{[5-chloro-2-(1H-1,2,3,4-tetrazol-1-yl)phenyl]-methyl}-1H-pyrazole-4-carboxamide], at Human PKK [1], the IC50 came to 0.5 nM. The concentration for an effect of 90% (IC90) in assay [2] was determined as 202 nM. This compound also gave an inhibition constant Ki on Human PKK [3] of 0.3 nM.
For `Cc1nc(N2CC3CC3C2)ccc1Cn1cc(C(=O)NCc2cc(Cl)c(F)cc2-n2cnnn2)cn1` (stereo not shown) [Example 2], in that order: 5 nM, 1150 nM and 0.8 nM.
In the same order, the values of `Cc1nc(N2CC3CC3C2)ccc1Cn1cc(C(=O)NCc2c(-n3cnnn3)ccc(Cl)c2F)cn1` (stereo not shown) [Example 3] are 0.4 nM, 170 nM and 0.2 nM.
`Cc1ccc(-n2cnnn2)c(CNC(=O)c2cnn(Cc3ccc(N4CC5CC5C4)nc3C)c2)c1` (stereo not shown) [Example 5] showed an IC50 on Human PKK [1] of 0.9 nM. The IC90 in assay [2] came out at 316 nM. The same compound yielded a Ki on Human PKK [3] of 0.4 nM.
Take `Cc1nc(N2CC3C(C2)C3(F)F)ccc1Cn1cc(C(=O)NCc2cc(Cl)ccc2-n2cnnn2)cn1` (stereo not shown) [Example 6]: on Human PKK [1], half-maximal inhibition (IC50) was put at 0.4 nM. Also, the IC90 in assay [2] is 184 nM.
The compound `Cc1nc(N2CC3CC3C2)ccc1Cn1cc(C(=O)NCc2cc(Cl)ccc2-n2cnnn2)c(C(F)F)n1` (stereo not shown) [Example 9] came in with an IC50 against Human PKK [1] of 1 nM. In assay [2], the concentration for an effect of 90% (IC90) came out at 239 nM. Further, on Human PKK [3], the affinity corresponds to a Ki of 0.8 nM.
For `COCc1nn(Cc2ccc(N3CC4CC4C3)nc2C)cc1C(=O)NCc1cc(Cl)ccc1-n1cnnn1` (stereo not shown) [Example 13], in that order: 0.9 nM, 396 nM and 0.8 nM.
At Human PKK [1], `Cc1nc(N2CC3CC3C2)ccc1Cn1cc(C(=O)NCc2cc(Cl)ccc2-n2cnnn2)c2cncnc21` (stereo not shown) [Example 15] yielded a 50% inhibitory concentration (IC50) of 2 nM. The IC90 in assay [2] is 419 nM. Further, affinity on Human PKK [3] was put at a Ki of 0.7 nM.
`COc1nn(Cc2ccc(N3CC4CC4C3)nc2C)cc1C(=O)NCc1cc(Cl)ccc1-n1cnnn1` (stereo not shown) [Example 21] had an IC50 against Human PKK [1] of 3 nM. In addition, the IC90 in assay [2] turned out to be 713 nM. The same compound registered a Ki on Human PKK [3] of 1 nM.
`Cc1nc(N2CC3CC3C2)ccc1Cn1cc(C(=O)NCc2cc(Cl)ccc2-n2cnnn2)c(-c2cnn(C)c2)n1` (stereo not shown) [Example 42]: the IC50 on Human PKK [1] worked out at 0.6 nM. In addition, in assay [2], the IC90 is 257 nM. For the same compound, the Ki on Human PKK [3] amounted to 1 nM.
As for `O=C(NCc1cc(Cl)ccc1-n1cnnn1)c1cn(Cc2ccc(N3CC4CC4C3)nc2)nc1C(F)F` (stereo not shown) [Example 44], the IC50 on Human PKK [1] is 1 nM. The IC90 in assay [2] is 341 nM. This compound also showed a Ki at Human PKK [3] of 0.5 nM.
In the same order, the values of `O=C(NCc1cc(Cl)ccc1-n1cnnn1)c1cn(Cc2ccc(N3CC4CC4C3)nc2)c2ncccc12` (stereo not shown) [Example 45] are 3 nM, 106 nM and 0.3 nM.
In the same order, the values of `Cn1cc(-c2nn(Cc3ccc(N4CC5CC5C4)nc3)cc2C(=O)NCc2cc(Cl)ccc2-n2cnnn2)cn1` (stereo not shown) [Example 46] are 0.7 nM, 341 nM and 1 nM.
Compound `COc1nn(Cc2ccc(N3CC4CC4C3)nc2)cc1C(=O)NCc1cc(Cl)ccc1-n1cnnn1` (stereo not shown) [Example 47] showed a 50% inhibitory concentration (IC50) against Human PKK [1] of 3 nM. In assay [2], the IC90 was determined as 711 nM. For the same compound, at Human PKK [3], the affinity, expressed as Ki, was 0.7 nM.
At Human PKK [1], `Cc1nc(N2CC3CC3C2)ccc1Cn1cc(C(=O)NCc2cc(Cl)ccc2-n2cnnn2)c(N)n1` (stereo not shown) [Example 48] yielded an IC50 of 0.8 nM. Moreover, in assay [2], the concentration for an effect of 90% (IC90) was found to be 316 nM. Moreover, the Ki on Human PKK [3] worked out at 0.5 nM.
`Cc1nc(N2CC3CC3C2)ccc1Cn1cc(C(=O)NCc2cc(Cl)ccc2-n2cnnn2)c(Br)n1` (stereo not shown) [Example 49] yielded an IC50 on Human PKK [1] of 1 nM. In addition, in assay [2], the concentration for an effect of 90% (IC90) stood at 932 nM. This compound also came in with a Ki on Human PKK [3] of 0.4 nM.
In the case of `Nc1nn(Cc2ccc(N3CC4CC4C3)nc2)cc1C(=O)NCc1cc(Cl)ccc1-n1cnnn1` (stereo not shown) [Example 52], half-maximal inhibition at Human PKK [1] (IC50) was put at 0.6 nM. Moreover, in assay [2], the IC90 came out at 103 nM. This compound returned a Ki on Human PKK [3] of 0.4 nM.
`Cc1nc(N2CC3(C2)CC3(F)F)ccc1Cn1cc(C(=O)NCc2cc(Cl)ccc2-n2cnnn2)cn1` [Example 54]: at Human PKK [1], half-maximal inhibition (IC50) required 3 nM. The concentration for an effect of 90% (IC90) in assay [2] turned out to be 969 nM. On Human PKK [3], this compound showed a Ki of 1 nM.
For `Cc1nc(N2CC3(CCC3)C2)ccc1Cn1cc(C(=O)NCc2cc(Cl)ccc2-n2cnnn2)cn1` [Example 59, 1-[(6-{2-azaspiro[3.3]heptan-2-yl}-2-methylpyridin-3-yl)methyl]-N-{[5-chloro-2-(1H-1,2,3,4-tetrazol-1-yl)phenyl]methyl}-1H-pyrazole-4-carboxamide], in that order: 0.7 nM, 847 nM and 0.3 nM.
On to `Cc1nc(N2CCC3(CCC3)C2)ccc1Cn1cc(C(=O)NCc2cc(Cl)ccc2-n2cnnn2)cn1` [Example 60, 1-[(6-{6-azaspiro[3.4]octan-6-yl}-2-methylpyridin-3-yl)methyl]-N-{[5-chloro-2-(1H-1,2,3,4-tetrazol-1-yl)phenyl]methyl}-1H-pyrazole-4-carboxamide], for which the IC50 against Human PKK [1] amounted to 4 nM. Also, the IC90 in assay [2] was found to be 4070 nM. The same compound showed a Ki on Human PKK [3] of 2 nM.
In the same order, the values of `Cc1nc(N2CC3(CC3)C2)ccc1Cn1cc(C(=O)NCc2cc(Cl)ccc2-n2cnnn2)cn1` [Example 63, 1-[(6-{5-azaspiro[2.3]hexan-5-yl}-2-methylpyridin-3-yl)methyl]-N-{[5-chloro-2-(1H-1,2,3,4-tetrazol-1-yl)phenyl]methyl}-1H-pyrazole-4-carboxamide] are 0.5 nM, 209 nM and 0.3 nM.
As to `Cc1nc(N2C[C@@H]3[C@H](C)[C@@H]3C2)ccc1Cn1cc(C(=O)NCc2cc(Cl)ccc2-n2cnnn2)cn1` [Example 87], the IC50 against Human PKK [1] came to 0.9 nM. For the same compound, in assay [2], the IC90 was found to be 252 nM. In addition, the affinity at Human PKK [3], expressed as Ki, was 0.8 nM.
Consider `Cc1nc(N2CC3(CCCN3)C2)ccc1Cn1cc(C(=O)NCc2cc(Cl)ccc2-n2cnnn2)cn1` [Example 91, N-{[5-chloro-2-(1H-1,2,3,4-tetrazol-1-yl)phenyl]methyl}-1-[(6-{2,5-diazaspiro[3.4]octan-2-yl}-2-methylpyridin-3-yl)methyl]-1H-pyrazole-4-carboxamide], for which, on Human PKK [1], the 50% inhibitory concentration (IC50) was 122 nM.
As to `Cc1nc(N2C[C@@H]3CCN[C@@H]3C2)ccc1Cn1cc(C(=O)NCc2cc(Cl)ccc2-n2cnnn2)cn1` [Example 92, 1-({6-[(3aS,6aS)-octahydropyrrolo[3,4-b]pyrrol-5-yl]-2-methylpyridin-3-yl}methyl)-N-{[5-chloro-2-(1H-1,2,3,4-tetrazol-1-yl)phenyl]methyl}-1H-pyrazole-4-carboxamide], it took 155 nM to reach half-maximal inhibition at Human PKK [1] (IC50).
Consider `Cc1nc(N2CCC3(CNC3)C2)ccc1Cn1cc(C(=O)NCc2cc(Cl)ccc2-n2cnnn2)cn1` [Example 93, N-{[5-chloro-2-(1H-1,2,3,4-tetrazol-1-yl)phenyl]methyl}-1-[(6-{2,6-diazaspiro[3.4]octan-6-yl}-2-methylpyridin-3-yl)methyl]-1H-pyrazole-4-carboxamide], for which half-maximal inhibition at Human PKK [1] (IC50) required 286 nM.
The compound `Cc1nc(N2CC3(CC3)C2)ccc1Cn1cc(C(=O)NCc2c(F)cccc2-n2cnnn2)cn1` [Example 94, 1-[(6-{5-azaspiro[2.3]hexan-5-yl}-2-methylpyridin-3-yl)methyl]-N-{[2-fluoro-6-(1H-1,2,3,4-tetrazol-1-yl)phenyl]methyl}-1H-pyrazole-4-carboxamide] came in with an IC50 against Human PKK [1] of 4 nM.
The Km is the substrate concentration at which the rate is half of its maximum. In the case of `CC(C)C[C@H](NC(=O)[C@H](N)C(C)C)C(=O)N[C@@H](CCCCN)C(=O)Nc1ccc([N+](=O)[O-])cc1` [Example S2251] (H-[dV]-Leu-Lys-pNA), the Km at Human plasmin came to 1450 µM.

(Values after patent US12091399B2, “Phenyltetrazole derivatives as plasma kallikrein inhibitors” (Boehringer Ingelheim International GmbH, priority 2018, dated 2024).)
